Results taken from PubChem BioAssay AID220 (DTP/NCI, 2004).
Values joined by “and” are separate entries in the source; they are usually repeats but may differ in a detail not shown here. Equal entries are not always repeated. Records with an inconclusive call do not appear.

System: CD8F1 mice, subcutaneous mammary adenocarcinoma, T/C%
Assay: NCI In Vivo Anticancer Drug Screen. Data for tumor model Mammary Adenocarcinoma CD8F1 (subcutaneous) in CD8F1
Conditions: higher = larger tumour
Method in brief: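 Antitumor activity is assessed in transplantable-tumor mice by comparing the treated group with a vehicle-treated control group. Survival or tumor size serves as the measure, reported as T divided by C.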

[1] = endpoint: median tumor weight (est.), dose: 12.5 mg/kg/injection, schedule: Q07DX005 (ip), vehicle: Klucel (hydroxypropylcellulose) (HPC)
[2] = endpoint: median tumor weight (est.), dose: 25.0 mg/kg/injection, schedule: Q07DX005 (ip), vehicle: Klucel (hydroxypropylcellulose) (HPC)
[3] = endpoint: median tumor weight (est.), dose: 50.0 mg/kg/injection, schedule: Q07DX005 (ip), vehicle: Klucel (hydroxypropylcellulose) (HPC)
[4] = endpoint: median tumor weight (est.), dose: 100.0 mg/kg/injection, schedule: Q07DX005 (ip), vehicle: Klucel (hydroxypropylcellulose) (HPC)
[5] = endpoint: median tumor weight (est.), dose: 200.0 mg/kg/injection, schedule: Q07DX005 (ip), vehicle: Klucel (hydroxypropylcellulose) (HPC)

With `CCC1=C[C@H]2CN(CCc3c([nH]c4ccccc34)[C@@](C(=O)OC)(c3cc4c(cc3OC)N(C)[C@H]3[C@@](O)(C(=O)OC)[C@H](OC(C)=O)[C@]5(CC)C=CCN6CC[C@]43[C@@H]65)C2)C1` the T/C (endpoint: median tumor weight change, dose: 4.0 mg/kg/injection, schedule: Q01DX001 (ip), vehicle: water) was 100 % of control and the T/C (endpoint: median tumor weight change, dose: 8.0 mg/kg/injection, schedule: Q01DX001 (ip), vehicle: water) was 36 % of control.

In the case of `Cc1ccc2c(ccc(CC(=S)[S-])[n+]2C)c1`, the T/C [1] is reported as 72 % of control and 97 % of control, the T/C [2] is reported as 90 % of control and the T/C [3] is reported as 102 % of control and 121 % of control. For the same compound, the T/C [4] was 46 % of control and 71 % of control and the T/C [5] was 32 % of control.

In the case of `CO[C@@H]1[C@H](O)CC[C@]2(CO2)[C@H]1[C@@]1(C)O[C@@H]1CC=C(C)C`, the T/C (endpoint: median tumor weight change, dose: 31.25 mg/kg/injection, schedule: Q01DX001 (ip), vehicle: saline with Tween-80) is reported as 113 % of control, the T/C (endpoint: median tumor weight change, dose: 62.5 mg/kg/injection, schedule: Q01DX001 (ip), vehicle: saline with Tween-80) is reported as 100 % of control and the T/C (endpoint: median tumor weight change, dose: 125.0 mg/kg/injection, schedule: Q01DX001 (ip), vehicle: saline with Tween-80) is reported as 106 % of control. For the same compound, the T/C (endpoint: median tumor weight change, dose: 250.0 mg/kg/injection, schedule: Q01DX001 (ip), vehicle: saline with Tween-80) was 110 % of control.

For `NC(=S)N/N=C/c1ccc(OC(=O)COc2ccccc2)cn1`, the T/C (endpoint: mean tumor weight, dose: 12.5 mg/kg/injection, schedule: Q07DX005 (ip), vehicle: saline with Tween-80) was 99 % of control, the T/C (endpoint: mean tumor weight, dose: 12.5 mg/kg/injection, schedule: Q07DX006 (ip), vehicle: saline with Tween-80) was 96 % of control and the T/C (endpoint: mean tumor weight, dose: 25.0 mg/kg/injection, schedule: Q07DX005 (ip), vehicle: saline with Tween-80) was 89 % of control. The T/C (endpoint: mean tumor weight, dose: 25.0 mg/kg/injection, schedule: Q07DX006 (ip), vehicle: saline with Tween-80) was 106 % of control, the T/C (endpoint: mean tumor weight, dose: 50.0 mg/kg/injection, schedule: Q07DX005 (ip), vehicle: saline with Tween-80) was 86 % of control and the T/C (endpoint: mean tumor weight, dose: 50.0 mg/kg/injection, schedule: Q07DX006 (ip), vehicle: saline with Tween-80) was 83 % of control. The T/C (endpoint: mean tumor weight, dose: 100.0 mg/kg/injection, schedule: Q07DX005 (ip), vehicle: saline with Tween-80) was 52 % of control, the T/C (endpoint: mean tumor weight, dose: 100.0 mg/kg/injection, schedule: Q07DX006 (ip), vehicle: saline with Tween-80) was 101 % of control and the T/C (endpoint: mean tumor weight, dose: 200.0 mg/kg/injection, schedule: Q07DX005 (ip), vehicle: saline with Tween-80) was 65 % of control. The T/C (endpoint: mean tumor weight, dose: 200.0 mg/kg/injection, schedule: Q07DX006 (ip), vehicle: saline with Tween-80) was 33 % of control.

`C=Cc1cnc([N+](=O)[O-])n1C` was tested, and the T/C [1] was 122 % of control, the T/C [2] was 92 % of control and the T/C [4] was 42 % of control. The T/C [5] was 30 % of control.

For `NC(CCl)=NCC12CC3CC(CC(C3)C1)C2`, the T/C (endpoint: median tumor weight (est.), dose: 3.12 mg/kg/injection, schedule: Q07DX005 (ip), vehicle: Klucel (hydroxypropylcellulose) (HPC)) was 114 % of control, the T/C [1] was 104 % of control and 119 % of control and the T/C [2] was 90 % of control. The T/C [3] was 39 % of control and 51 % of control.

In the case of `CC(=S)NC(O)C(=O)c1ccccc1` (stereo not drawn), the T/C (endpoint: median tumor weight (est.), dose: 25.0 mg/kg/injection, schedule: Q07DX005 (ip), vehicle: saline with Tween-80) is reported as 79 % of control, the T/C (endpoint: median tumor weight (est.), dose: 100.0 mg/kg/injection, schedule: Q07DX005 (ip), vehicle: saline with Tween-80) is reported as 96 % of control and the T/C (endpoint: median tumor weight (est.), dose: 200.0 mg/kg/injection, schedule: Q07DX005 (ip), vehicle: saline with Tween-80) is reported as 111 % of control.

In the case of `CC(C)[C@](O)(C(=O)OCC1=CCN2CC[C@@H](O)[C@@H]12)[C@H](C)O`, the T/C (endpoint: median tumor weight change, dose: 125.0 mg/kg/injection, schedule: Q01DX001 (ip), vehicle: water) is reported as 78 % of control and the T/C (endpoint: median tumor weight change, dose: 250.0 mg/kg/injection, schedule: Q01DX001 (ip), vehicle: water) is reported as 179 % of control.

In the case of `O=C(O)CC(NC(=O)CP(=O)(O)O)C(=O)O` (stereo not drawn), the T/C (endpoint: median tumor weight (est.), dose: 25.0 mg/kg/injection, schedule: Q07DX005 (ip), vehicle: saline) is reported as 92 % of control, the T/C (endpoint: median tumor weight (est.), dose: 50.0 mg/kg/injection, schedule: Q07DX005 (ip), vehicle: saline) is reported as 94 % of control and the T/C (endpoint: median tumor weight (est.), dose: 100.0 mg/kg/injection, schedule: Q07DX005 (ip), vehicle: saline) is reported as 62 % of control. The T/C (endpoint: median tumor weight (est.), dose: 200.0 mg/kg/injection, schedule: Q07DX005 (ip), vehicle: saline) was 56 % of control, the T/C (endpoint: median tumor weight (est.), dose: 400.0 mg/kg/injection, schedule: Q07DX005 (ip), vehicle: saline) was 9 % of control and the T/C (endpoint: median tumor weight change, dose: 100.0 mg/kg/injection, schedule: Q01DX001 (ip), vehicle: saline) was 81 % of control. The T/C (endpoint: median tumor weight change, dose: 200.0 mg/kg/injection, schedule: Q01DX001 (ip), vehicle: saline) was 92 % of control, the T/C (endpoint: median tumor weight change, dose: 400.0 mg/kg/injection, schedule: Q01DX001 (ip), vehicle: saline) was 85 % of control and the T/C (endpoint: median tumor weight change, dose: 800.0 mg/kg/injection, schedule: Q01DX001 (ip), vehicle: saline) was 66 % of control.
